Results: PubChem BioAssay AID330 (DTP/NCI, 2004)
Several values for one entry are separate records, joined by “and”; a condition that tells them apart may be missing. Identical values can stand only once. Toxic doses and inconclusive results are not listed. Rule for the calls: active = survival T/C of 150% or more; inactive = T/C below 125% in these data.

System: P388 leukemia ip, CD2F1 mice, survival T/C
Test: NCI In Vivo Anticancer Drug Screen. Data for tumor model P388 Leukemia (intraperitoneal) in CD2F1 (CDF1) mice
Details: endpoint: median survival time, higher = longer survival
Summary of the method: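 Mice carrying the transplanted tumor received test compound or vehicle. Survival was recorded in each group, and the value is the treated-group measurement divided by that of the vehicle-treated control group.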

[1] = dose: 100.0 mg/kg/injection, schedule: Q04DX002 (ip), vehicle: saline
[2] = dose: 200.0 mg/kg/injection, schedule: Q04DX002 (ip), vehicle: saline
[3] = dose: 6.25 mg/kg/injection, schedule: Q01DX005 (ip), vehicle: saline with Tween-80
[4] = dose: 12.5 mg/kg/injection, schedule: Q01DX005 (ip), vehicle: saline with Tween-80
[5] = dose: 25.0 mg/kg/injection, schedule: Q01DX005 (ip), vehicle: saline with Tween-80
[6] = dose: 50.0 mg/kg/injection, schedule: Q01DX009 (ip), vehicle: saline with Tween-80
[7] = dose: 100.0 mg/kg/injection, schedule: Q04DX003 (ip), vehicle: Klucel (hydroxypropylcellulose) (HPC)
[8] = dose: 200.0 mg/kg/injection, schedule: Q04DX003 (ip), vehicle: Klucel (hydroxypropylcellulose) (HPC)
[9] = dose: 50.0 mg/kg/injection, schedule: Q01DX005 (ip), vehicle: Klucel (hydroxypropylcellulose) (HPC)
[10] = dose: 100.0 mg/kg/injection, schedule: Q01DX005 (ip), vehicle: Klucel (hydroxypropylcellulose) (HPC)
[11] = dose: 200.0 mg/kg/injection, schedule: Q01DX005 (ip), vehicle: Klucel (hydroxypropylcellulose) (HPC)
[12] = dose: 100.0 mg/kg/injection, schedule: Q01DX009 (ip), vehicle: saline with Tween-80
[13] = dose: 200.0 mg/kg/injection, schedule: Q01DX009 (ip), vehicle: saline with Tween-80
[14] = dose: 60.0 mg/kg/injection, schedule: Q01DX005 (ip), vehicle: saline with Tween-80
[15] = dose: 120.0 mg/kg/injection, schedule: Q01DX005 (ip), vehicle: saline with Tween-80
[16] = dose: 240.0 mg/kg/injection, schedule: Q01DX005 (ip), vehicle: saline with Tween-80

Measured: T/C

CCCCn1cnc2c(cnn2C)c1=N
inactive: [1] 97 % of control | [2] 97 % of control

O=C(NC(Cc1ccc(Cl)cc1)C(=O)O)c1ccccc1 (stereo not drawn)
inactive: dose: 25.0 mg/kg/injection, schedule: Q01DX009 (ip), vehicle: other 98 % of control | dose: 50.0 mg/kg/injection, schedule: Q01DX009 (ip), vehicle: other 97 % of control | dose: 100.0 mg/kg/injection, schedule: Q01DX009 (ip), vehicle: other 106 % of control

COc1c(-c2ccc3c(c2)OCO3)oc2cc(O)cc(O)c2c1=O
inactive: [3] 100 % of control | [4] 100 % of control | [5] 104 % of control | dose: 100.0 mg/kg/injection, schedule: Q01DX005 (ip), vehicle: saline with Tween-80 89 % of control | dose: 200.0 mg/kg/injection, schedule: Q01DX005 (ip), vehicle: saline with Tween-80 105 % of control

CCOP(=O)(OCC)C(=O)c1ccccc1
inactive: dose: 60.0 mg/kg/injection, schedule: Q01DX005 (ip), vehicle: saline 100 % of control | dose: 120.0 mg/kg/injection, schedule: Q01DX005 (ip), vehicle: saline 103 % of control | dose: 240.0 mg/kg/injection, schedule: Q01DX005 (ip), vehicle: saline 105 % of control

CC(/C=C/c1cccc(C)c1)=N\NC(N)=S
inactive: dose: 3.75 mg/kg/injection, schedule: Q01DX005 (ip), vehicle: Klucel (hydroxypropylcellulose) (HPC) 106 % of control | dose: 7.5 mg/kg/injection, schedule: Q01DX005 (ip), vehicle: Klucel (hydroxypropylcellulose) (HPC) 105 % of control | dose: 30.0 mg/kg/injection, schedule: Q01DX005 (ip), vehicle: Klucel (hydroxypropylcellulose) (HPC) 122 % of control

CCOC(=O)Sc1ncnc2nc[nH]c12
inactive: dose: 33.0 mg/kg/injection, schedule: Q01DX009 (ip), vehicle: saline with Tween-80 113 % of control | [6] 122 % of control | dose: 75.0 mg/kg/injection, schedule: Q01DX009 (ip), vehicle: saline with Tween-80 122 % of control | dose: 100.0 mg/kg/injection, schedule: Q04DX003 (ip), vehicle: saline with Tween-80 104 % of control | dose: 200.0 mg/kg/injection, schedule: Q04DX003 (ip), vehicle: saline with Tween-80 108 % of control

CC(=O)NC1C(Nc2ccc(S(=O)(=O)NC(C)=O)cc2)OC(CO)C(O)C1O (stereo not drawn)
inactive: dose: 50.0 mg/kg/injection, schedule: Q01DX005 (ip), vehicle: saline 100 % of control | dose: 100.0 mg/kg/injection, schedule: Q01DX005 (ip), vehicle: saline 97 % of control | dose: 200.0 mg/kg/injection, schedule: Q01DX005 (ip), vehicle: saline 97 % of control

COC(=O)C1(C)CCCC2(C)C3=CC(=O)OC3(OC)CCC12 (stereo not drawn)
inactive: dose: 2.5 mg/kg/injection, schedule: Q01DX009 (ip), vehicle: saline with Tween-80 107 % of control | dose: 5.0 mg/kg/injection, schedule: Q01DX009 (ip), vehicle: saline with Tween-80 101 % of control | dose: 10.0 mg/kg/injection, schedule: Q01DX009 (ip), vehicle: saline with Tween-80 103 % of control

c1ccc(-c2cc[n+]3c4c2ccc2c(-c5ccccc5)cc[n+](c24)CC3)cc1
inactive: dose: 6.25 mg/kg/injection, schedule: Q01DX009 (ip), vehicle: saline 99 % of control | dose: 12.5 mg/kg/injection, schedule: Q01DX009 (ip), vehicle: saline 98 % of control and 100 % of control | dose: 25.0 mg/kg/injection, schedule: Q01DX009 (ip), vehicle: saline 104 % of control and 117 % of control

CCCCc1c(C(=O)OCC)oc(C(=O)OCC)c(CCCC)c1=O
inactive: dose: 12.5 mg/kg/injection, schedule: Q04DX003 (ip), vehicle: Klucel (hydroxypropylcellulose) (HPC) 108 % of control | dose: 25.0 mg/kg/injection, schedule: Q04DX003 (ip), vehicle: Klucel (hydroxypropylcellulose) (HPC) 104 % of control | dose: 50.0 mg/kg/injection, schedule: Q04DX003 (ip), vehicle: Klucel (hydroxypropylcellulose) (HPC) 103 % of control | [7] 100 % of control | [8] 104 % of control | dose: 400.0 mg/kg/injection, schedule: Q04DX003 (ip), vehicle: Klucel (hydroxypropylcellulose) (HPC) 106 % of control

CSC(=S)N1CCN(C(=S)SC)C1=O
inactive: [9] 108 % of control | [10] 96 % of control | [11] 91 % of control

COc1cc(C)c(O)c(C/C=C(\C)CC(=O)[C@H]2[C@]3(C)CCC[C@]3(C)[C@@]23C[C@H](O)C(C)(C)O3)c1
inactive: dose: 8.75 mg/kg/injection, schedule: Q01DX005 (ip), vehicle: saline with Tween-80 95 % of control | dose: 17.5 mg/kg/injection, schedule: Q01DX005 (ip), vehicle: saline with Tween-80 92 % of control | dose: 35.0 mg/kg/injection, schedule: Q01DX005 (ip), vehicle: saline with Tween-80 96 % of control

COc1ccc(C(=O)C(C)Br)c(OCc2ccccc2)c1OC (stereo not drawn)
inactive: [6] 107 % of control | [12] 105 % of control and 109 % of control | [13] 114 % of control and 118 % of control | dose: 400.0 mg/kg/injection, schedule: Q01DX009 (ip), vehicle: saline with Tween-80 110 % of control and 122 % of control

CNP(=O)(OC)Oc1ccc(C(C)(C)C)cc1Cl (stereo not drawn)
inactive: [6] 112 % of control | [12] 106 % of control | [13] 115 % of control

Nc1c(I)cc(CC(N)C(=O)O)cc1I (stereo not drawn)
inactive: dose: 50.0 mg/kg/injection, schedule: Q01DX009 (ip), vehicle: saline 94 % of control | dose: 100.0 mg/kg/injection, schedule: Q01DX009 (ip), vehicle: saline 86 % of control | dose: 200.0 mg/kg/injection, schedule: Q01DX009 (ip), vehicle: saline 89 % of control

Clc1nc(Cl)nc(-c2cn(-c3ccccc3)c3ccccc23)n1
inactive: dose: 12.5 mg/kg/injection, schedule: Q01DX009 (ip), vehicle: saline with Tween-80 100 % of control | dose: 25.0 mg/kg/injection, schedule: Q01DX009 (ip), vehicle: saline with Tween-80 90 % of control | [6] 100 % of control

COc1ccc(OC)c2cc3c(cc12)C(=O)C(C)=C(C)C3=O
inactive: [9] 89 % of control | [10] 86 % of control | [11] 88 % of control

CSc1ccc(N2C(N)=NC(N)=NC2(C)C)cc1
inactive: [3] 100 % of control | [4] 102 % of control | [5] 100 % of control

CCCOCC(O)CNCCN (stereo not drawn)
inactive: dose: 50.0 mg/kg/injection, schedule: Q01DX009 (ip), vehicle: Klucel (hydroxypropylcellulose) (HPC) 100 % of control | dose: 100.0 mg/kg/injection, schedule: Q01DX009 (ip), vehicle: Klucel (hydroxypropylcellulose) (HPC) 102 % of control | dose: 200.0 mg/kg/injection, schedule: Q01DX009 (ip), vehicle: Klucel (hydroxypropylcellulose) (HPC) 109 % of control

N=C(N)c1ccc(N=Nc2c(O)ccc3cc4c(N=Nc5ccc(C(=N)N)cc5)c(O)ccc4cc23)cc1
inactive: [9] 110 % of control | [10] 111 % of control | [11] 110 % of control

COC(=O)c1sc(N2CCCC2)nc1N
inactive: [14] 102 % of control | [15] 99 % of control | [16] 97 % of control

C[C@H]1CCC/C=C/[C@@H]2C[C@H](O)C[C@H]2[C@H](O)/C=C/C(=O)O1
inactive: [7] 104 % of control | [8] 90 % of control

CC(=O)N1CCCC2=C1CCCC2
inactive: dose: 25.0 mg/kg/injection, schedule: Q04DX003 (ip), vehicle: saline 100 % of control | dose: 50.0 mg/kg/injection, schedule: Q04DX003 (ip), vehicle: saline 103 % of control | dose: 100.0 mg/kg/injection, schedule: Q04DX003 (ip), vehicle: saline 104 % of control and 92 % of control | dose: 400.0 mg/kg/injection, schedule: Q04DX003 (ip), vehicle: saline 101 % of control

O=c1[nH]ccn1-c1ccccc1
inactive: [14] 102 % of control | [15] 100 % of control | [16] 97 % of control

CC(=O)Oc1ccccc1C(=O)OCc1ccccc1
inactive: [9] 94 % of control | [10] 92 % of control | [11] 100 % of control

CCCCN1C(=O)C(CC(=O)OCC)SC1=S (stereo not drawn)
inactive: dose: 60.0 mg/kg/injection, schedule: Q01DX005 (ip), vehicle: Klucel (hydroxypropylcellulose) (HPC) 95 % of control | dose: 120.0 mg/kg/injection, schedule: Q01DX005 (ip), vehicle: Klucel (hydroxypropylcellulose) (HPC) 97 % of control | dose: 240.0 mg/kg/injection, schedule: Q01DX005 (ip), vehicle: Klucel (hydroxypropylcellulose) (HPC) 97 % of control

CC(C)C=C1[C@H](O)CC[C@@H]1O
inactive: [1] 101 % of control | [2] 101 % of control | dose: 400.0 mg/kg/injection, schedule: Q04DX002 (ip), vehicle: saline 96 % of control
